From PubChem BioAssay (NCI)
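48-hour exposure; five concentrations; linearly interpolated endpoints. GI50: concentration for 50% inhibition of growth. The concentration for full growth arrest is given as TGI.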

Tests used:
Assay in all cases: NCI tumour cell line growth inhibition, 48 h
A498 renal = test system: A498 renal
HOP-92 NSCLC = test system: HOP-92 NSCLC
KM12 colon = test system: KM12 colon
LOX IMVI melanoma = test system: LOX IMVI melanoma
SF-268 CNS = test system: SF-268 CNS
SF-539 CNS = test system: SF-539 CNS
SK-MEL-2 melanoma = test system: SK-MEL-2 melanoma
SK-MEL-28 melanoma = test system: SK-MEL-28 melanoma
SNB-19 CNS = test system: SNB-19 CNS
SR leukemia = test system: SR leukemia

Compound | GI50 (A498 renal) [µM] | TGI (A498 renal) [µM] | GI50 (HOP-92 NSCLC) [µM] | TGI (HOP-92 NSCLC) [µM] | GI50 (KM12 colon) [µM] | TGI (KM12 colon) [µM] | GI50 (LOX IMVI melanoma) [µM] | TGI (LOX IMVI melanoma) [µM] | GI50 (SF-268 CNS) [µM] | TGI (SF-268 CNS) [µM] | GI50 (SF-539 CNS) [µM] | TGI (SF-539 CNS) [µM] | GI50 (SK-MEL-2 melanoma) [µM] | TGI (SK-MEL-2 melanoma) [µM] | GI50 (SK-MEL-28 melanoma) [µM] | TGI (SK-MEL-28 melanoma) [µM] | GI50 (SNB-19 CNS) [µM] | TGI (SNB-19 CNS) [µM] | GI50 (SR leukemia) [µM] | TGI (SR leukemia) [µM]
O=C1NC(=NCCc2ccc(Cl)cc2)S/C1=C\c1ccc2ncccc2c1 | 13.8 | > 25 | 7.32 | > 25 | > 23 | > 25 | > 20.9 | > 25 | 11.7 | > 25 | 15.9 | > 25 | 8.28 | > 25 | > 25 | > 25 | > 25 | > 25 | 6.92 | > 25
COc1cc(/C=N/NC(=O)c2cnn3c2NC(c2ccccc2)C3)ccc1OC1CCCC1 (centres undefined) | 0.407 | 2.28 | 0.684 | 3.69 | 0.39 | 4.46 | 0.581 | 2.21 | 1.88 | 13.1 | 0.537 | 1.99 | 0.948 | 6.06 | 1.25 | 9.15 | 0.923 | 10.9 | 0.252 | 3.78
CCOc1c(Br)cc(Br)cc1C=C(C#N)C#N | – | 8.8 | – | > 10 | – | > 10 | – | 7.36 | – | > 10 | – | 6.21 | – | > 10 | – | > 10 | – | > 10 | – | > 10
COc1cc(C2CC(c3ccc(Nc4nc(NCCO)nc(NCCO)n4)cc3)=NN2c2cc(Cl)cc(Cl)c2)cc(OC)c1OC (centres undefined) | 16.6 | 30.2 | 1.46 | 6.73 | 1.53 | 3.21 | 1.6 | 3.1 | 1.52 | 4.09 | 1.2 | 2.57 | 15.5 | 28.9 | 1.53 | 3.14 | 1.72 | 4.12 | 1.29 | 4.11
C[C@@]1(F)[C@H](O)[C@@H](CO)O[C@H]1n1ccc(=O)[nH]c1=O | > 100 | > 100 | > 100 | > 100 | > 100 | > 100 | > 100 | > 100 | > 100 | > 100 | > 100 | > 100 | > 100 | > 100 | > 100 | > 100 | > 100 | > 100 | > 100 | > 100
COc1ccc(-c2ccc(OC)c(OC)c2OC)cc1 | 2.27 | > 31.2 | 1.32 | 63 | 0.767 | > 51.8 | 2.82 | > 100 | 9.28 | > 100 | 1.24 | 5.31 | 3.8 | > 100 | 14.9 | > 100 | 4.83 | > 100 | 0.572 | > 100
COc1ccc2[nH]c(C(=O)N3CCN(C(=O)OCc4ccc5c(Cl)cc(Cl)c(O)c5n4)CC3)cc2c1 | 1.59 | 2.99 | 0.864 | 2.4 | 1.69 | 3.68 | 1.43 | 2.81 | 1.49 | 3.02 | 1.31 | 2.58 | 1.61 | 3.06 | 1.58 | 2.94 | 1.54 | 2.87 | 0.232 | 1.05
COc1ccc(-n2c(=S)sc3c(Cl)nc(C)nc32)c(OC)c1 | 11.5 | 23.8 | 2.06 | 8.46 | 3.33 | 11.5 | 1.71 | 3.19 | 2.17 | 5.21 | 2.07 | 4.55 | 2.04 | 3.97 | 2.18 | 4.6 | 2.4 | 5.42 | 1.42 | 5.52
CCCCCCCC(=O)OCC/C=C/C1OC1C1OC(=O)/C=C\C=C\C(=O)N(C(C)=O)C(=O)/C=C(/C)CCC2OC2C1OC(=O)NC(C)=O (centres undefined) | 22.6 | > 25 | 0.823 | 7.38 | 3.88 | 11.7 | 2.93 | 6.74 | 4.6 | 12.1 | 3.68 | 7.36 | 6.46 | 20.4 | 5.12 | 14.3 | > 25 | > 25 | 4.48 | > 25
O=C(Nc1sc2c(c1C(=O)O)CCCC2)c1ccco1 | > 50 | > 50 | > 50 | > 50 | 29.5 | > 50 | 22.8 | > 50 | 25.7 | > 50 | 47.5 | > 50 | > 50 | > 50 | > 50 | > 50 | 29.5 | > 50 | 46.2 | > 50
O=S(=O)(NC1=NCCN1C(=S)SN1CCn2c1nsc2=S)c1ccc(Cl)cc1 | 17.4 | 42.2 | 11.4 | 25.2 | 15.9 | 33.6 | 3.84 | 15.7 | 6.5 | 28 | 1.47 | 3.12 | 5.93 | 22.7 | 4.85 | 20.7 | 14.5 | 36.4 | 2.4 | 6.51
Cn1c(I)c(C#C[Si](C)(C)C)c(=O)n(C(=O)c2ccccc2)c1=O | 10.9 | 24.3 | 2.6 | 13.6 | 12.1 | 27.8 | 2.79 | 8.26 | 3.22 | 10.2 | 5.3 | 12.1 | 12.8 | 26 | 2.03 | 3.8 | 15.5 | 31.8 | 1.89 | –
COc1cccc2c1C(=O)c1c(O)c3c(c(O)c1C2=O)C[C@@](O)(C(C)=O)CC3OC1CC(OC2CC(N)C(O)C(C)O2)C(O)C(C)O1 (some centres undefined) | – | > 100 | – | > 100 | – | > 100 | – | > 100 | – | > 100 | – | > 76.8 | – | > 100 | – | > 100 | – | > 85.1 | – | > 70
O=C(Nc1n[nH]c2cc(-c3cc(F)ccc3F)ccc12)C1CC1 | > 25 | > 25 | > 25 | > 25 | 8.08 | > 25 | 14.4 | > 25 | 19.5 | > 25 | 13.5 | > 25 | 12.2 | > 25 | > 14.5 | > 25 | > 25 | > 25 | 6.38 | > 25
Oc1ccc(Cl)cc1C=Nc1cnc2ccccc2c1 | – | > 100 | – | > 100 | – | > 100 | – | > 100 | – | > 100 | – | 45.8 | – | > 80.6 | – | > 100 | – | > 100 | – | > 100
Cc1ccc(/C(=N/Nc2ccc([N+](=O)[O-])cc2)Sc2cc(Cl)c(C)cc2S(N)(=O)=O)cc1 | 1.87 | 4.55 | 1.45 | 3.77 | 1.37 | 3.18 | 1.49 | 3.45 | 1.91 | 7.37 | 1.1 | 2.97 | 4.9 | 20 | 3.03 | 8.9 | 2.5 | > 20.5 | 0.945 | 3.55
Cc1n[nH]c2ccccc2c1=O | – | > 100 | – | > 100 | – | > 100 | – | > 100 | – | > 100 | – | > 100 | – | > 100 | – | > 100 | – | > 100 | – | > 100
